For this assay, the target named is CDK2/CyclinE1 (Homo sapiens (Human), UniProt P24941). As to the kind of experiment: CDK2 kinase assay (TR-FRET). It counts as biochemical. The conditions noted are these: CDK2/CyclinE1 0.5 nM, ATP 50 μM. The protocol: The purpose of these assays is to evaluate the inhibition of small molecule inhibitors by using TR-FRET assay.
Compound Preparation. Dissslove the compounds into DMSO solution to make 10 mM DMSO stock. Serially dilute the stock solution from highest concentration down to lowest in DMSO to make the compound stock plate (100× stock plates). To make 5× compound intermediate plate, add 38 μL of assay buffer (50 mM HEPES, pH 7.5, 0.05 mg/mL BSA, 10 mM MgCl2, 1 mM EGTA, 0.01% Tween-20, 2 mM DTT) into each well of the V-bottom plate; then transfer 2 μL of the stock compound solution of each concentration from the compound stock plate (100× stock), and mix well.
Enzyme reaction. Transfer 2 μL compound from 5× intermediate plate into assay plate, then add 4 μL/well 2.5× Enzyme mix to assay plate, incubation for 10 min at room temperature. For positive control wells, add 4 μL/well assay buffer instead of Enzyme mix. Then add 4 μL/well 2.5× Substrate mix to assay plate, and incubation at 25° C. for 30 min at room temperature. After reaction, 10 μL 2× Detection mix (final 15 mM EDTA, 1× LANCE Detection Buffer, 0.5 nM Detection antibody) was added and incubated for 1 h prior to detection with excitation and emission at 320 and 665 nm (Tecan Spark® TR-FRET mode Tecan).
Inhibition rate (IR) of the tested compounds was determined by the following formula: IR (%)=(average High control−compound well)/(average High control−average Low control)*100%. Fit the compound IC50 from non-linear regression equation: Y=Bottom+(Top−Bottom)/(1+10^((Log IC50−X)*HillSlope)). X: Log of cpd concentration; Y: Inhibition rate (TR); Top and Bottom: Plateaus in same units as Y, log IC50: same log units as X; HillSlope: Slope factor or Hill slope.

The compound `CC(C)NC(=O)O[C@@H]1CC[C@H](c2cc(NC(=O)C3CN(S(=O)(=O)C4CC4)CC3C)n[nH]2)C1` (stereo partly drawn) [Compound 172] gave an IC50 of 1.2 nM.
`CC(C)NC(=O)O[C@@H]1CC[C@H](c2cc(NC(=O)[C@H]3C[C@@H]3COC(F)F)n[nH]2)C1` [Compound 105] gave an IC50 of 1.1 nM.
Then `CC(C)NC(=O)OC1COC(c2cc(NC(=O)Cc3ccccc3C(F)(F)F)n[nH]2)C1` (stereo not drawn) [Compound 64], with 16.6 nM; and `CCC1(NC(=O)O[C@H]2CO[C@@H](c3cc(NC(=O)c4ccnn4C)n[nH]3)C2)CCC1` [Compound 183], with 0.5 nM; and `CC1(NC(=O)O[C@@H]2CC[C@H](c3cc(NC(=O)[C@@H]4CCN(S(C)(=O)=O)C4)n[nH]3)C2)CC1` [Compound 83], with 1.1 nM.
To `COC1CCC(C(=O)Nc2cc([C@H]3CC[C@@H](OC(=O)NC(C)C)C3)[nH]n2)C1` (single isomer, unassigned) [Compound 60] belongs 37.4 nM; to `CC(C)NC(=O)O[C@@H]1CC[C@H](c2cc(NC(=O)[C@H]3CCN(C(=O)C(C)C)C3)n[nH]2)C1` [Compound 14], 1.7 nM; to `COC(C)[C@H]1C[C@@H]1C(=O)Nc1cc([C@H]2CC[C@@H](OC(=O)NC3(C)CC3)C2)[nH]n1` (single isomer, unassigned) [Compound 221], 0.8 nM.
To `COC(C)[C@H]1C[C@@H]1C(=O)Nc1cc([C@H]2CC[C@@H](OC(=O)NC3(C)CC3)C2)[nH]n1` (single isomer, unassigned) [Compound 220] belongs 1.5 nM.
Take `CC(C)NC(=O)O[C@@H]1CC[C@H](c2cc(NC(=O)C3CCOCC3)n[nH]2)C1` [Compound 1]: half-maximal inhibition (IC50) was put at 7.1 nM.
For the compound `CC[C@H](C)NC(=O)O[C@@H]1CC[C@H](c2cc(NC(=O)[C@@H]3CCN(S(C)(=O)=O)C3)n[nH]2)C1` [Compound 59], the half-maximal inhibitory concentration (IC50) turned out to be 4.9 nM.
To `CC(C)NC(=O)O[C@H]1CC[C@@H](c2cc(NC(=O)C3CC3C#N)n[nH]2)C1` (single isomer, unassigned) [Compound 192] belongs 2 nM; to `Cn1nccc1C(=O)Nc1cc([C@@H]2C[C@H](OC(=O)NC3(C)CC3)CO2)[nH]n1` [Compound 95], 3.7 nM.
To `C#C[C@H]1C[C@@H]1C(=O)Nc1cc([C@H]2C[C@@H](OC(=O)NC(C)(C)CC)CO2)[nH]n1` [Compound 168] belongs 0.6 nM; to `Cc1c(C2CC2C(=O)Nc2cc([C@H]3CC[C@@H](OC(=O)NC(C)C)C3)[nH]n2)cnn1C` (single isomer, unassigned) [Compound 163], 0.7 nM.
Consider `COCC1C[C@@H]1C(=O)Nc1cc([C@H]2CC[C@@H](OC(=O)NC(C)(C)C)C2)[nH]n1` (stereo partly drawn) [Compound 85], for which the 50% inhibitory concentration (IC50) came to 2 nM.
Then `CC(C)NC(=O)O[C@@H]1CC[C@H](c2cc(Nc3nccc(CCO)n3)n[nH]2)C1` [Compound 12], with 10.1 nM.
In the case of `COC[C@@H]1CCN(C(=O)Nc2cc([C@H]3CC[C@@H](OC(=O)NC(C)C)C3)[nH]n2)C1` [Compound 120], half-maximal inhibition (IC50) required 116 nM.
To `CCC1(NC(=O)O[C@H]2CO[C@@H](c3cc(NC(=O)c4ccnn4C)n[nH]3)C2)CC1` [Compound 203] belongs 0.9 nM.
To `COC[C@@H]1C[C@H]1C(=O)Nc1cc([C@H]2CC[C@@H](OC(=O)NC(C)C)C2)[nH]n1` [Compound 28] belongs 110 nM; to `CC1(NC(=O)O[C@H]2CC[C@@H](c3cc(NC(=O)C4CC4C#N)n[nH]3)C2)CC1` (single isomer, unassigned) [Compound 195], 1.5 nM; to `C#C[C@H]1C[C@@H]1C(=O)Nc1cc([C@H]2C[C@@H](OC(=O)NC3(C)COC3)CO2)[nH]n1` [Compound 182], 4 nM.
Then `CC(C)NC(=O)O[C@@H]1CC[C@H](C2=CC(NC(=O)[C@H]3C[C@@H]3[C@@H](C)O)=NC2)C1` [Compound 137], with 5.3 nM; and `COCc1cc(C(=O)Nc2cc([C@H]3CC[C@@H](OC(=O)N[C@H]4C[C@]5(CCOC5)C4)C3)[nH]n2)n(C)n1` [Compound 202], with 3.9 nM.
The compound `C#C[C@H]1C[C@@H]1C(=O)Nc1cc([C@@H]2CC[C@H](OC(=O)NC3(C)CCC3)C2)[nH]n1` [Compound 219] returned a concentration for half-maximal inhibition (IC50) of 0.5 nM. This IC50 lies about 7.8-fold lower than the previous one.
Then `Cc1c(C2CC2C(=O)Nc2cc([C@@H]3CC[C@H](OC(=O)NC(C)C)C3)[nH]n2)cnn1C` (single isomer, unassigned) [Compound 207], with 40.1 nM; and `CC1(NC(=O)O[C@H]2CC[C@@H](c3cc(NC(=O)C4CC4C#N)n[nH]3)C2)CC1` (single isomer, unassigned) [Compound 196], with 0.4 nM; and `CC(C)NC(=O)OC1COC(c2cc(NC(=O)c3ccccc3)n[nH]2)C1` (stereo not drawn) [Compound 66], with 14.4 nM.
To `COC[C@H]1C[C@@H]1C(=O)Nc1cc([C@H]2CC[C@@H](OC(=O)N[C@H](C)C3CC3)C2)[nH]n1` [Compound 73] belongs 4.1 nM; to `CC(C)NC(=O)O[C@@H]1CC[C@H](c2cc(NC(=O)C3CC3OCC(F)F)n[nH]2)C1` (stereo partly drawn) [Compound 147], 4.8 nM.
In turn, `CC(C)NC(=O)O[C@@H]1CO[C@H](c2cc(NC(=O)c3cc(C(F)F)nn3C)n[nH]2)C1` [Compound 112] displayed a half-maximal inhibitory concentration (IC50) of 13.4 nM.
Turning to `COC[C@H]1C[C@@H]1C(=O)Nc1cc([C@H]2CC[C@@H](OC(=O)NC34CC(C3)C4)C2)[nH]n1` [Compound 34], the midpoint of inhibition, the IC50, lay at 0.7 nM. Against the preceding compound, the IC50 is about 19-fold lower.
For the compound `CC(C)NC(=O)O[C@@H]1CC[C@H](c2cc(NC(=O)[C@H]3CCN(C(=O)C(C)C)C3)n[nH]2)C1` [Compound 31], inhibition was half-maximal at 8.1 nM (IC50). Against the preceding compound, the IC50 is about 12-fold higher.
Then `Cn1nccc1C(=O)Nc1cc([C@@H]2C[C@H](OC(=O)NC34CC(F)(C3)C4)CO2)[nH]n1` [Compound 160], with 5.3 nM; and `CS(=O)(=O)N1CC[C@@H](C(=O)Nc2cc([C@H]3CC[C@@H](OC(=O)NC45CC(C4)C5)C3)[nH]n2)C1` [Compound 81], with 0.9 nM.
Then `CC[C@H](C)NC(=O)O[C@H]1CO[C@@H](c2cc(NC(=O)c3ccnn3C)n[nH]2)C1` [Compound 99], with 0.8 nM; and `CCc1cc(C(=O)Nc2cc([C@@H]3C[C@H](OC(=O)NC(C)C)CO3)[nH]n2)n(C)n1` [Compound 78], with 18.7 nM; and `CC(C)NC(=O)OC1COC(c2cc(NC(=O)c3ccnn3C)n[nH]2)C1` (stereo not drawn) [Compound 26], with 3.7 nM.
Then `CC(C)NC(=O)O[C@@H]1CC[C@H](c2cc(NC(=O)[C@H]3C[C@@H]3CC#N)n[nH]2)C1` [Compound 56], with 4 nM; and `CC(C)NC(=O)O[C@@H]1CC[C@H](c2cc(NC(=O)C3CC3C#N)n[nH]2)C1` (stereo partly drawn) [Compound 87], with 3.6 nM.
`COCc1cc(C(=O)Nc2cc([C@H]3C[C@@H]4[C@H](C3)[C@H]4C(=O)NC(C)C)[nH]n2)n(C)n1` [Compound 69] came in with an IC50 of 18.8 nM.
In the case of `C#C[C@H]1C[C@@H]1C(=O)Nc1cc([C@@H]2CC[C@H](OC(=O)NC(C)C)C2)[nH]n1` [Compound 145], the IC50 worked out at 0.9 nM.
Regarding `CC(C)NC(=O)O[C@H]1CO[C@@H](c2cc(NC(=O)c3cc(C4CC4)nn3C)n[nH]2)C1` [Compound 80], the concentration for half-maximal inhibition (IC50) came to 15.4 nM.
For the compound `CC(C)NC(=O)OC1COC(c2cc(NC(=O)Cc3ccc(C(F)(F)F)cc3)n[nH]2)C1` (stereo not drawn) [Compound 62], the IC50 turned out to be 2.3 nM. Compared with the last compound, the IC50 is about 6.7-fold lower.
`C#C[C@H]1C[C@@H]1C(=O)Nc1cc([C@H]2CC[C@@H](OC(=O)NC34CC(F)(C3)C4)C2)[nH]n1` [Compound 194] came in with an IC50 of 0.7 nM. This IC50 is about 3.3-fold lower than that of the compound before.
Then `CC(C)NC(=O)O[C@@H]1CO[C@H](c2cc(NC(=O)[C@@H]3CCN(S(=O)(=O)C4CC4)C3)n[nH]2)C1` [Compound 132], with 7.2 nM; and `C#C[C@H]1C[C@@H]1C(=O)Nc1cc([C@@H]2C[C@H](OC(=O)NC3(C)COC3)CO2)[nH]n1` [Compound 197], with 15.7 nM.
For the compound `C#C[C@H]1C[C@@H]1C(=O)Nc1cc([C@@H]2C[C@H](OC(=O)NC(C)C)CO2)[nH]n1` [Compound 165], half-maximal inhibition (IC50) was put at 4.7 nM. This IC50 is about 3.3-fold lower than that of the compound before.
To `COC[C@H]1C[C@@H]1C(=O)Nc1cc([C@H]2CC[C@@H](OC(=O)NC(C)C(F)F)C2)[nH]n1` (single isomer, unassigned) [Compound 108] belongs 5 nM; to `CC(C)NC(=O)OC1COC(c2cc(NC(=O)c3ccnn3C)n[nH]2)C1` (stereo not drawn) [Compound 27], 1.2 nM; to `C#C[C@H]1C[C@@H]1C(=O)Nc1cc([C@@H]2CC[C@H](OC(=O)NC3(C)CC3)C2)[nH]n1` [Compound 223], 0.5 nM.
To `Cc1cc(CC(=O)Nc2cc([C@H]3CC[C@@H](OC(=O)NC4COC5(CCC5)C4)C3)[nH]n2)on1` (single isomer, unassigned) [Compound 38] belongs 22.4 nM; to `CC(C)NC(=O)O[C@@H]1COC(c2cc(NC(=O)Cc3ccc(OCCN4CCCC4)cc3)n[nH]2)C1` (stereo partly drawn) [Compound 128], 14.6 nM.
The compound `COCc1cc(C(=O)Nc2n[nH]c([C@H]3CC[C@@H](OC(=O)NC(C)C)C3)c2F)n(C)n1` [Compound 10] came in with an IC50 of 92.4 nM.
